From publication PMC8580050, “Improvement of the antimicrobial potency, pharmacokinetic and pharmacodynamic properties of albicidin by incorporation of nitrogen atoms” (Chemical Science, 2021)
In brackets after ≈: the same amount, converted by molar mass. Read-outs that look alike come from different tables or passages of the source.

Assays:
M. phlei DSM 750 = test: MIC determination (broth microdilution); format: cell-based, Mycobacterium phlei; conditions: Mycolicibacterium phlei, DSM750; M. phlei DSM 750; read-out: MIC
Description: (§1) 1.1.1 In vitro experiments
(§2) Determination of Minimal inhibitory concentrations (MIC)
(§3) Approved Standard M07-A9.1
(§4) CFU mL-1. […] Albicidin and […]
(§5) and serially diluted in DMSO (100%). […]
(§6) in 0.1 N HCL, respectively.
(§7) One row of each well plate served as a […]
(§8) sterility control (only MHB II-media). […]
(§9) adding 5 µL DMSO to several wells. […]
(§10) for growth inhibition by naked eye.

M. luteus DSM1790 = test: MIC determination (broth microdilution); format: cell-based, Micrococcus luteus; conditions: Micrococcus luteus; M. luteus DSM1790; read-out: MIC
Description: as §1, §2, §3, §4, §5, §6, §7, §8, §9, §10
(§11) Microorganisms and Cell Cultures (DSMZ): […]

E. coli DSM 1116 = test: MIC determination (broth microdilution); format: cell-based, Escherichia coli; conditions: Escherichia coli, DSM1116
Description: as §1, §2, §3, §4, §5, §6, §7, §8, §9, §10, §11

S. Typhimurium TA100 = test: MIC determination (broth microdilution); format: cell-based, Salmonella typhimurium; conditions: Salmonella enterica; S. Typhimurium TA100; read-out: MIC
Description: as §1, §2, §3, §4, §5, §6, §7, §8, §9, §10, §11

E. coli DNA gyrase = target: T1, E. coli DNA gyrase (Escherichia coli, UniProt P0AES4+P0AES6); test: E. coli gyrase supercoiling inhibition assay; format: biochemical; parameters: key: ↑: for stronger inhibition; ≈: for equal inhibition; ↓: for diminished inhibition compared to albicidin 1; conditions: constant concentration of 45 nM, compared to albicidin 1
T1 construct: purchased inspiralis Limited, Norwich, UK
Description: Escherichia coli Gyrase Supercoiling Inhibition Assay
loaded on an agarose gel.
2-15. […] Addition of DNA
All derivatives were tested at a concentration of […]

E. coli BW25113 = test: MIC determination (broth microdilution); format: cell-based; conditions: Escherichia coli
Description: as §1, §2, §3, §4, §5, §6, §7, §8, §9, §10, §11

B. subtilis DSM 10 = test: MIC determination (broth microdilution); format: cell-based; conditions: Bacillus subtilis, DSM10; B. subtilis DSM 10; read-out: MIC
Description: as §1, §2, §3, §4, §5, §6, §7, §8, §9, §10, §11

[1] = test system: E. coli DSM 1116 + 50% Human Serum; test: MIC determination in presence of 50% human serum; format: cell-based; conditions: Escherichia coli, DSM1116; E. coli DSM 1116 + 50% Human Serum; read-out: MIC
Text: This investigation was completed by assessment of the antibacterial activity in presence of human plasma (50%) (Table 1), since high plasma protein binding can severely impair antibacterial activity and thus efficacy.
as §1, §2, §3, §4, §5, §6, §7, §8, §9, §10, §11

Gram-negative strains = test: MIC, primary panel; format: cell-based; conditions: Salmonella enterica, TYPHIMURIUM
Description: as §1, §2, §3, §4, §5, §6, §7, §8, §9, §10
(§12) Microorganisms and Cell Cultures (DSMZ):
Mycobacterium phlei DSM 750
Salmonella typhimurium TA100 was kindly provided by Prof. Dr. Vera Meyer (Technische Universität […]
Brötz-Oesterheldt (Tübingen, Germany)/ Prof. Dr. Heisig (Hamburg, Germany)2 Escherichia coli WT (GK571)
Escherichia coli WT-3-1 (GK796) [gyrA (S83L, D87G)]
Escherichia coli MI (GK572) [gyrA (S83L)] […]
or by Prof. Dr. Werner (Robert-Koch-Institut, Wernigerode, Germany): […]

Gram-positive strains = test: MIC, primary panel; format: cell-based
Description: as §1, §2, §3, §4, §5, §6, §7, §8, §9, §10, §12
Mycobacterium phlei DSM 750 […]
Dr. Werner (Robert-Koch-Institut, Wernigerode, Germany): […]

[2] = Cell proliferation assay (HepG2 cells); conditions: human
Description: (§13) Cell proliferation assay (HepG2 cells)
(§14) The assay was performed by the company Eurofins (Taiwan). Cytotoxicity was representatively
(§15) according to a protocol by Ansar et al.27 This is in line with previously published cytotoxicity data on
(§16) GI = growth inhibition; TGI = total growth inhibition; LC = lethal concentration

HepG2 cells = test: Cell proliferation assay (HepG2 cells); conditions: HepG2 cells
Description: as §13, §14, §15, §16

DNA gyrase = conditions: read-out: half maximum inhibitory concentration (IC50); cited from earlier work
[3] = E. coli DSM 1116, read-out: MIC

Row | Compound | MIC (M. phlei DSM 750) | MIC (M. luteus DSM1790) | MIC (E. coli DSM 1116; [3]) | MIC (S. Typhimurium TA100) | E. coli gyrase inhibition (E. coli DNA gyrase) | MIC (E. coli BW25113) | MIC (B. subtilis DSM 10) | MIC [1] | MIC (Gram-negative strains) | MIC (Gram-positive strains) | MIC (E. coli DSM 1116) | CC50 [2] | GI50 [2] | TGI (total growth inhibition) (HepG2 cells) | IC50 (DNA gyrase)
1 | COc1c(NC(=O)c2ccc(NC(=O)c3ccc(NC(=O)[C@H](Cc4c[nH]nn4)NC(=O)c4ccc(NC(=O)/C(C)=C/c5ccc(O)cc5)cc4)cc3)cc2)ccc(C(=O)O)c1O [Compound 11, reference compound] | 4 µg/mL (≈ 4.77 µM) | 8 µg/mL (≈ 9.54 µM) | 0.063 µg/mL (≈ 0.0751 µM) | 0.063 µg/mL (≈ 0.0751 µM) | ≈ | 0.031 µg/mL (≈ 0.037 µM) | 4 µg/mL (≈ 4.77 µM) | 4 µg/mL | – | – | – | – | – | – | –
2 | COc1c(NC(=O)c2ccc(NC(=O)[C@H](Cc3c[nH]nn3)NC(=O)c3ccc(NC(=O)/C(C)=C/c4ccc(O)cc4)cc3)cc2)ccc(C(=O)Nc2ccc(C(=O)O)nc2)c1O [Compound 12] | 32 µg/mL (≈ 38.1 µM) | 32 µg/mL (≈ 38.1 µM) | 64 µg/mL (≈ 76.2 µM) | 0.125 µg/mL (≈ 0.149 µM) | ↓ | ≥ 128 µg/mL | ≥ 128 µg/mL | ≥ 8 µg/mL | > 32 µg/mL | > 32 µg/mL | – | – | – | – | –
3 | COc1c(NC(=O)c2ccc(NC(=O)[C@H](Cc3c[nH]nn3)NC(=O)c3ccc(NC(=O)/C(C)=C/c4ccc(O)cc4)cc3)cc2)ccc(C(=O)Nc2ccc(C(=O)O)cn2)c1O [Compound 13] | 4 µg/mL (≈ 4.76 µM) | 4 µg/mL (≈ 4.76 µM) | – | 0.016 µg/mL (≈ 0.0191 µM) | ≈ | 0.125 µg/mL (≈ 0.149 µM) | 4 µg/mL (≈ 4.76 µM) | 8 µg/mL | 0.125 µg/mL (≈ 0.149 µM) | 4 µg/mL (≈ 4.76 µM) | 0.125 µg/mL (≈ 0.149 µM) | – | – | – | –
4 | COc1c(NC(=O)c2ccc(NC(=O)[C@H](Cc3c[nH]nn3)NC(=O)c3ccc(NC(=O)/C(C)=C/c4ccc(O)cc4)cc3)cc2)ccc(C(=O)Nc2ccc(C(=O)O)cc2)c1O [Compound 14, reference compound] | 1 µg/mL (≈ 1.19 µM) | 2 µg/mL (≈ 2.38 µM) | 0.25 µg/mL (≈ 0.298 µM) | 0.016 µg/mL (≈ 0.0191 µM) | ≈ | 0.125 µg/mL (≈ 0.149 µM) | 0.5 µg/mL (≈ 0.596 µM) | 8 µg/mL | – | – | – | – | – | – | –
5 | COc1c(NC(=O)c2ccc(NC(=O)[C@H](Cc3c[nH]nn3)NC(=O)c3ccc(NC(=O)/C(C)=C/c4ccc(O)cc4)cc3)cc2)ccc(C(=O)Nc2ccccc2)c1O [Compound 15] | 2 µg/mL (≈ 2.52 µM) | 1 µg/mL (≈ 1.26 µM) | 1 µg/mL (≈ 1.26 µM) | 1 µg/mL (≈ 1.26 µM) | ≈ | 0.5 µg/mL (≈ 0.629 µM) | 2 µg/mL (≈ 2.52 µM) | ≥ 8 µg/mL | – | – | – | – | – | – | –
6 | CN[C@@H]1C[C@H]2O[C@@](C)([C@@H]1OC)n1c3ccccc3c3c4c(c5c6ccccc6n2c5c31)C(=O)NC4 [Staurosporine, reference compound] | – | – | – | – | – | – | – | – | – | – | – | 5810 nM | 5.23 nM | < 140 nM | –
7 | cystobactamid | – | – | – | – | – | – | – | – | – | – | – | – | – | – | 80 nM
